The record followed here is publication PMC8559926, “Design, synthesis and biological evaluation of N-oxide derivatives with potent in vivo antileishmanial activity” (PLoS ONE, 2021).

Structures are written as SMILES. Where “and” joins values, the source holds several entries; their conditions need not be identical. Equal values may be shown once. Read-outs that look alike come from different tables or passages of the source.

A short description of data set [1]: Anti-amastigote activity in infected murine peritoneal macrophages. The class given is cell-based, L. infantum. Conditions: Swiss, mouse; CC50 macrophages / EC50 L. infantum amastigotes; read-out: SI - Selective Index (CC50/EC50). The protocol:
(§1) The antileishmanial activity against L. infantum intracellular amastigotes, according to the following methodology. […] Were used infected macrophages as negative control and amphotericin B as the positive control.
(§2) After incubation, cells were fixed with methanol and Giemsa stained. The effective concentration to 50% amastigotes death (EC) was obtained by counting 100 macrophages in duplicate, in two independent experiments. The values were obtained by non-linear regression on Bioestat® software, and results were expressed in mean ± standard deviation.

Data set [2] concerns L. infantum intracellular amastigotes. Described as above. Format: cell-based. The settings on record: Leishmania infantum, Peritoneal macrophage, read-out: EC50 - Effective Concentration that kills 50% of L. infantum amastigote forms. The procedure:
as §1, §2

A short description of data set [3]: Quantification of nitrite by the Griess reaction (NO release). The settings on record: compounds at 10^-4 M, 5 mM of L-Cys (1:50), 1 h, 37°C. The procedure: The levels of nitrite resulting from the oxidation of NO in the aqueous medium were quantified through the Griess reaction after incubation with an excess of L-cysteine (1:50) according to previously published methods. The experiments were performed in triplicate and repeated three times on different days. […] The results were expressed as a percentage of nitrite (% NO2^−; mol/mol). Statistical analysis was carried out using ANOVA followed by Tukey’s Multiple Comparison Test at a significance level of p < 0.05.
The ability of all synthesized compounds (4a-x) and (14a-g) to release NO was evaluated by indirect determination of NO2^− production. The compounds at 10^−4 M were incubated for 1 h at 37°C in the presence of L-cysteine (1:50) and the produced NO2^− was determined through Griess reaction (Table 1).
(In general: Nitrite, measured by Griess reagent, commonly stands in for NO production.)

The target of data set [4] is T1, recombinant Leishmania cysteine protease LmCPB2.8ΔCTE (CPB) (Leishmania mexicana, UniProt P36400).
T1 construct: The ORF that codes for the Leishmania mexicana CPB, lacking the C terminal extension (CPB2.8ΔCTE); made in house; host or cells: Pichia pastoris X-33
T1 sequence (P36400 126-341, stated change not applied): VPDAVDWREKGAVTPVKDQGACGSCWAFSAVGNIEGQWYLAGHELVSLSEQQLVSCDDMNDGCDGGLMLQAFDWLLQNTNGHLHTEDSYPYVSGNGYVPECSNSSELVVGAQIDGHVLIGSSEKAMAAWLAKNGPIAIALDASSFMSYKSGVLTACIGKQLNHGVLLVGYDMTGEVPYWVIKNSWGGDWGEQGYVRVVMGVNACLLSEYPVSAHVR
In words: Enzymatic inhibition of recombinant CPB (Z-FR-AMC substrate). Format: biochemical. The procedure: The concentration of the active recombinant CPB expressed in Pichia pastoris supernatant was determined by active site titration with N-(trans-Epoxysuccinyl)-L-leucine 4-guanidinobutylamide E-64 (CalBiochem) that was found 1 μM. The active enzyme represented about 80% of the total recombinant enzyme.
Compounds were dissolved in DMSO to a final concentration of 20 μM. The assays were performed in dark 96 well-plates, containing 200 μL of 100 mM sodium acetate buffer (pH 5.5), 200 mM NaCl, 0.01% Triton-X100, 2 nM enzyme, various concentrations of inhibitor, and 5 μM of the substrate Z-FR-AMC (Calbiochem). The final concentration of DMSO was 1% (v/v). The enzyme was pre-incubated at 30°C for 2 minutes before the inhibitor was added, waited 2 minutes and after this incubation, the reaction was started by the addition of the substrate, Z-FR-AMC. The fluorescence was monitored at 380 nm excitation and 460 nm emission filters for 2 minutes at 30°C in an Infinite 200 PRO microplate reader (Tecan, Männedorf, Switzerland). The residual activity was measured by the ratio between enzyme + substrate and enzyme + inhibitor + substrate. […] Results were expressed in mean ± standard deviation of two independent replicates using Bioestat Software.

Take `C[C@@H]1[C@H](O)[C@@H](C)/C=C/C=C/C=C/C=C/C=C/C=C/C=C/[C@H](O[C@@H]2O[C@H](C)[C@@H](O)[C@H](N)[C@@H]2O)C[C@@H]2O[C@](O)(C[C@@H](O)C[C@@H](O)[C@H](O)CC[C@@H](O)C[C@@H](O)CC(=O)O[C@H]1C)C[C@H](O)[C@H]2C(=O)O` [Amphotericin B, amphotericin B, reference compound]: in data set [1], the selectivity ratio at 24 h worked out at 12. In addition, the EC50 in data set [2] (24 h treatment, intracellular amastigotes) amounted to 1 ± 0.1 µM. Further, in data set [3], the “% NO2- (mol/mol)” value worked out at 0%.
As usually defined, the IC50 is the concentration needed to halve the response being measured. Turning to `O=C(N/N=C/c1ccc(Oc2no[n+]([O-])c2-c2ccccc2)cc1)c1ccccc1` [Compound 4a, (E)-4-(4-((2-benzoylhydrazono)methyl)phenoxy)-3-phenyl-1,2,5-oxadiazole 2-oxide], the IC50 in data set [4] is 1.5 ± 0.1 µM. The selectivity ratio at 24 h in data set [1] is > 357. Besides, the EC50 in data set [2] (24 h) is 1.4 ± 0.1 µM. Besides, the “% NO2- (mol/mol)” value in data set [3] was 9.0 ± 0.7 %.
Taken in the same sequence, the figures for `O=C(N/N=C/c1ccc(Oc2no[n+]([O-])c2-c2ccccc2)cc1)c1ccc(O)cc1` [Compound 4b, (E)-4-(4-((2-(4-hydroxybenzoyl)hydrazono)methyl)phenoxy)-3-phenyl-1,2,5-oxadiazole 2-oxide] were 3.2 ± 0.3 µM, 54, 3.1 ± 0.2 µM and 8.8 ± 0.6 %.
Taken in the same sequence, the figures for `Nc1ccc(C(=O)N/N=C/c2ccc(Oc3no[n+]([O-])c3-c3ccccc3)cc2)cc1` [Compound 4c, (E)-4-(4-((2-(4-aminobenzoyl)hydrazono)methyl)phenoxy)-3-phenyl-1,2,5-oxadiazole 2-oxide] were 2 ± 0.1 µM, 17, 7.2 ± 0.2 µM and 9.3 ± 0.8 %.
For `O=C(N/N=C/c1ccc(Oc2no[n+]([O-])c2-c2ccccc2)cc1)c1ccc([N+](=O)[O-])cc1` [Compound 4d, (E)-4-(4-((2-(4-nitrobenzoyl)hydrazono)methyl)phenoxy)-3-phenyl-1,2,5-oxadiazole 2-oxide] the same measures were 1.8 ± 0.1 µM, > 128, 3.9 ± 0.4 µM and 8.6 ± 0.8 %.
As for `CC(C)(C)c1ccc(C(=O)N/N=C/c2ccc(Oc3no[n+]([O-])c3-c3ccccc3)cc2)cc1` [Compound 4e, (E)-4-(4-((2-(4-(tert-butyl)benzoyl)hydrazono)methyl)phenoxy)-3-phenyl-1,2,5-oxadiazole 2-oxide], the half-inhibitory concentration (IC50) in data set [4] is 0.8 ± 0.1 µM. The selectivity ratio at 24 h in data set [1] is > 833. Further, the EC50 in data set [2] (24 h) was 0.6 ± 0.1 µM. The “% NO2- (mol/mol)” value in data set [3] stood at 8.8 ± 0.7 %.
Taken in the same sequence, the figures for `NC(=S)N/N=C/c1ccc(Oc2no[n+]([O-])c2-c2ccccc2)cc1` [Compound 4g, (E)-4-(4-((2-carbamothioylhydrazono)methyl)phenoxy)-3-phenyl-1,2,5-oxadiazole 2-oxide] were 6.5 ± 1 µM, > 227, 2.2 ± 0.3 µM and 9.0 ± 0.6 %.
As to `NC(=O)c1c(COc2ccc(/C=N/NC(=O)c3ccccc3)cc2)no[n+]1[O-]` [Compound 4h, (E)-4-((4-((2-benzoylhydrazono)methyl)phenoxy)methyl)-3-carbamoyl-1,2,5-oxadiazole 2-oxide], the half-inhibitory concentration (IC50) in data set [4] stood at 8.8 ± 0.2 µM. In data set [1], the selectivity ratio at 24 h is > 161. Besides, the EC50 in data set [2] (24 h) was 3.1 ± 0.2 µM. In addition, the “% NO2- (mol/mol)” value in data set [3] worked out at 12.1 ± 1.2 %.
As to `NC(=O)c1c(COc2ccc(/C=N/NC(=O)c3ccc([N+](=O)[O-])cc3)cc2)no[n+]1[O-]` [Compound 4l, (E)-3-carbamoyl-4-((4-((2-(4-nitrobenzoyl)hydrazono)methyl)phenoxy)methyl)-1,2,5-oxadiazole 2-oxide], in data set [4], the half-inhibitory concentration (IC50) was 10.8 ± 2.3 µM. In data set [2] (24 h), the EC50 is 7.7 ± 2.1 µM. Further, in data set [3], the “% NO2- (mol/mol)” value is 11.8 ± 1.1 %.
Turning to `CC(C)(C)c1ccc(C(=O)N/N=C/c2ccc(OCc3no[n+]([O-])c3C(N)=O)cc2)cc1` [Compound 4m, (E)-4-((4-((2-(4-(tert-butyl)benzoyl)hydrazono)methyl)phenoxy)methyl)-3-carbamoyl-1,2,5-oxadiazole 2-oxide], the 50% inhibitory concentration (IC50) in data set [4] came to 6 ± 0.7 µM. Also, the selectivity ratio at 24 h in data set [1] is > 78. Further, the EC50 in data set [2] (24 h) was 6.4 ± 1.1 µM. Besides, the “% NO2- (mol/mol)” value in data set [3] is reported as 12.5 ± 1.3 %.
For the molecule `O=C(N/N=C/c1ccc2no[n+]([O-])c2c1)c1ccccc1` [Compound 4p], the half-inhibitory concentration (IC50) in data set [4] is > 20 µM. Besides, the EC50 in data set [2] (24 h) was > 10 µM.
For `Nc1ccccc1C(=O)N/N=C/c1ccc2no[n+]([O-])c2c1` [Compound 4q] the same measures were 14 ± 2 µM and > 10 µM.
Consider `Nc1cccc(C(=O)N/N=C/c2ccc3no[n+]([O-])c3c2)c1` [Compound 4r], for which, in data set [4], the 50% inhibitory concentration (IC50) worked out at 3.4 ± 0.1 µM. In addition, the selectivity ratio at 24 h in data set [1] turned out to be 11. In addition, in data set [2] (24 h), the EC50 was found to be 9.5 ± 0.6 µM.
Consider `Nc1ccc(C(=O)N/N=C/c2ccc3no[n+]([O-])c3c2)cc1` [Compound 4s], for which the concentration for half-maximal inhibition (IC50) in data set [4] is > 20 µM. Also, the EC50 in data set [2] (24 h) was > 10 µM.
For `O=C(N/N=C/c1ccc2no[n+]([O-])c2c1)c1ccccc1O` [Compound 4t] the same measures were 4.2 ± 0.2 µM and > 10 µM.
In the case of `O=C(N/N=C/c1ccc2no[n+]([O-])c2c1)c1cccc(O)c1` [Compound 4u], the 50% inhibitory concentration (IC50) in data set [4] turned out to be 11.7 ± 0.5 µM. Moreover, the EC50 in data set [2] (24 h) was > 10 µM.
Taken in the same sequence, the figures for `O=C(N/N=C/c1ccc2no[n+]([O-])c2c1)c1ccc(O)cc1` [Compound 4v] were > 20 µM and > 10 µM.
On to `CC(C)(C)c1ccc(C(=O)N/N=C/c2ccc3no[n+]([O-])c3c2)cc1` [Compound 4x], for which the concentration for half-maximal inhibition (IC50) in data set [4] (read-out: IC50 - Inhibition of CPB, 2 nM enzyme, 5 μM Z-FR-AMC, pH 5.5, 30°C) is > 20 µM. The EC50 in data set [2] (24 h) is > 10 µM.
For orientation: melting point means the temperature of the solid-liquid transition. For the molecule `NC(=O)N/N=C/c1ccc(O)cc1` [Compound 14a, (E)-2-(4-hydroxybenzylidene)hydrazine-1-carboxamide], the melting point lay in the range of 224 to 226 °C. Moreover, the IC50 in data set [4] was 2 ± 0.1 µM. Also, in data set [2] (24 h), the EC50 was > 10 µM.
For `NC(=S)N/N=C/c1ccc(O)cc1` [Compound 14b, (E)-2-(4-hydroxybenzylidene)hydrazine-1-carbothioamide], the half-maximal inhibitory concentration (IC50) in data set [4] was 11.7 ± 1 µM.
On to `O=C(N/N=C/c1ccc(O)cc1)c1ccccc1` [Compound 14c, (E)-N’-(4-hydroxybenzylidene)benzohydrazide], for which the melting point is 244 to 245 °C. Further, the IC50 in data set [4] was determined as 2 ± 0.3 µM. The EC50 in data set [2] (24 h) is > 10 µM.
Consider `O=C(N/N=C/c1ccc(O)cc1)c1ccc(O)cc1` [Compound 14d, (E)-4-hydroxy-N’-(4-hydroxybenzylidene)benzohydrazide], for which the IC50 in data set [4] is 2 ± 0.1 µM. Further, the EC50 in data set [2] (24 h) is > 10 µM.
Take `Nc1ccc(C(=O)N/N=C/c2ccc(O)cc2)cc1` [Compound 14e, (E)-4-amino-N’-(4-hydroxybenzylidene)benzohydrazide]: the melting point is 275 to 276 °C. For the same molecule, the IC50 in data set [4] came to 1.2 ± 0.1 µM. In data set [2] (24 h), the EC50 is > 10 µM.
For `O=C(N/N=C/c1ccc(O)cc1)c1ccc([N+](=O)[O-])cc1` [Compound 14f, (E)-N’-(4-hydroxybenzylidene)-4-nitrobenzohydrazide] the same measures were 266 to 268 °C, 4 ± 0.1 µM and > 10 µM.
`CC(C)(C)c1ccc(C(=O)N/N=C/c2ccc(O)cc2)cc1` [Compound 14g, (E)-4-(tert-butyl)-N’-(4-hydroxybenzylidene)benzohydrazide]: the 50% inhibitory concentration (IC50) in data set [4] is 7.6 ± 2.1 µM. The EC50 in data set [2] (24 h) was > 10 µM.
For the molecule `O=[N+]([O-])O[C@H]1CO[C@H]2[C@@H]1OC[C@H]2O[N+](=O)[O-]` [DNS, isosorbide dinitrate, reference compound], the “% NO2- (mol/mol)” value in data set [3] is 10.5% and 10.5 ± 0.9 ^*^a %.
